Read-outs that look alike come from different tables or passages of the source. [OPent] = 2'-O-pentyl ribonucleoside; [OPr] = 2'-O-propyl ribonucleoside; d = 2'-deoxy (DNA)
How the values were obtained:
PKC-α mRNA = assay: Northern blot analysis of PKC-α mRNA levels; assay type: cell-based, human; conditions: result in words
Experimental: Oligonucleotides having SEQ ID NO:4 were synthesized as uniformly phosphorothioate chimeric oligonucleotides having a centered deoxy gap of varying lengths flanked by 2′-O-methylated regions. These oligonucleotides (500 nM concentration) were tested for effects on PKC-A mRNA levels by Northern blot analysis.
Additional phosphorothioate oligonucleotides targeted to the human PKC-α 3′ untranslated region were designed and synthesized.

[1] = test system: 25mer oligoribonucleotide complement; assay: Melting curves with 25mer oligoribonucleotide complement; assay type: binding; conditions: 17mer hybridized with 25mer oligoribonucleotide complement
Source text: Other sugar modifications: The effects of other 2′ sugar modifications besides 2′-O-methyl on antisense activity in chimeric oligonucleotides have been examined. These modifications are listed in Table 4, along with the Tm values obtained when 17mer oligonucleotides having 2′-modified nucleotides flanking a 7-base deoxy gap were hybridized with a 25mer oligoribonucleotide complement as described in Example 25. […] As alkyl length increased, Tm decreased.
Absorbance vs. temperature curves were measured at 260 nm using a Gilford 260 spectrophotometer interfaced to an IBM PC computer and a Gilford Response II spectrophotometer. The buffer contained 100 mM Na^+, 10 mM phosphate and 0.1 mM EDTA, pH 7. Oligonucleotide concentration was 4 μM each strand determined from the absorbance at 85° C. and extinction coefficients calculated according to Puglisi and Tinoco [Methods in Enzymol., 180, 304 (1989). Tm values, free energies of duplex formation and association constants were obtained from fits of data to a two state model with linear sloping baselines. [Petersheim and Turner, Biochemistry, 22, 256 (1983). Reported parameters are averages of at least three experiments. For some oligonucleotides, free energies of duplex formation were also obtained from plots of Tm^−1 vs log10 (concentration). Borer et al., J. Mol. Biol., 86, 843 (1974).

[2] = test system: ras-luciferase (codon-12 point mutation of activated H-ras); assay: ras-luciferase reporter gene system; assay type: cell-based, human; conditions: for inhibition of ras-luciferase activity: cells expressing the mutant form of ras-luciferase, dose response, FIGS. 1 and 2; for effect on ras expression: chimeric backbone-modified oligonucleotides, result in words
ras mRNA = assay: Northern blot analysis of ras expression in T24 cells; assay type: cell-based, human
Experimental: The human urinary bladder cancer cell line T24 was obtained from the American Type Culture Collection (Rockville Md.). Cells were grown in McCoy's 5A medium with L-glutamine (GIBCO-BRL, Gaithersburg, Md.), supplemented with 10% heat-inactivated fetal calf serum and 50 U/ml each of penicillin and streptomycin. Cells were seeded on 100 mm plates. When they reached 70% confluency, they were treated with oligonucleotide. Plates were washed with 10 ml prewarmed PBS and 5 ml of OptiMEM (GIBCO) reduced-serum medium containing 2.5 μl DOTMA. Oligonucleotide was then added to the desired concentration. After 4 hours of treatment, the medium was replaced with McCoy's medium. Cells were harvested 48 hours after oligonucleotide treatment and RNA was isolated using a standard CsCl purification method. [Kingston in Current Protocols in Molecular Biology, F. M. Ausubel, R. Brent, R. E. Kingston, D. D. Moore, J. A. Smith, J. G. Seidman and K. Strahl, Eds., John Wiley and Sons, New York.] The human epithelioid carcinoma cell line HeLa 229 was obtained from the American Type Culture Collection (Bethesda, Md.). HeLa cells were maintained as monolayers on 6-well plates in Dulbecco's Modified Eagle's medium (DMEM) supplemented with 10% fetal bovine serum and 100 U/ml penicillin. Treatment with oligonucleotide and isolation of RNA were essentially as described above for T24 cells.
Northern hybridization: 10 μg of each RNA was electrophoresed on a 1.2% agarose/formaldehyde gel and transferred overnight to GeneBind 45 nylon membrane (Pharmacia LKB, Piscataway, N.J.) using standard methods. [Kingston in Current Protocols in Molecular Biology, F. M. Ausubel, R. Brent, R. E. Kingston, D. D. Moore, J. A. Smith, J. G. Seidman and K. Strahl, Eds., John Wiley and Sons, New York.] RNA was UV-crosslinked to the membrane. Double-stranded ^32P-labeled probes were synthesized using the Prime a Gene labeling kit (Promega, Madison Wis.). The ras probe was a SalI-NheI fragment of a cDNA clone of the activated (mutant) H-ras mRNA having a GGC-to-GTC mutation at codon-12. The control probe was G3PDH. Blots were prehybridized for 15 minutes at 68° C. with the QuickHyb hybridization solution (Stratagene, La Jolla, Calif.). The heat-denatured radioactive probe (2.5×10^6 counts/2 ml hybridization solution) mixed with 100 μl of 10 mg/ml salmon sperm DNA was added and the membrane was hybridized for 1 hour at 68° C. The blots were washed twice for 15 minutes at room temperature in 2×SSC/0.1% SDS and once for 30 minutes at 60° C. with 0.1×SSC/0.1% SDS. Blots were autoradiographed and the intensity of signal was quantitated using an ImageQuant PhosphorImager (Molecular Dynamics, Sunnyvale, Calif.). Northern blots were first hybridized with the ras probe, then stripped by boiling for 15 minutes in 0.1×SSC/0.1% SDS and rehybridized with the control G3PDH probe to check for correct sample loading.

[3] = test system: complementary RNA strand (the sense strand); assay: Thermal melting analysis of 2′-deoxy-2′-fluoro modified oligonucleotides (hybridization thermodynamics); assay type: binding
[4] = duplex with complementary RNA, first Tm column

AsAoAoAoCoGsTsCsAsGsCsCsAsTsGoGoToCoCsC (AAAACGTCAGCCATGGTCCC; linkages s1 o4 s9 o4 s1 (s phosphorothioate, o phosphodiester), sugars by position and methylation of C not given here; further chemistry not fully specified) [Oligonucleotide 7294]
effect on PKC-α mRNA levels (PKC-α mRNA; listed as 7294): more active than their 2′-β-methyl counterparts

O-Propyl: 17-mer CCACACCGACGGCGCCC (SEQ ID NO: 1), 2′-O-propyl nucleotides flanking a 7-base deoxy gap (sugars from the 5' end [OPr]5 d7 [OPr]5, backbone and methylation of C not given here)
Tm [1]: 70.4 °C

C^MC^MA^M C^MA^MC^M CdGdAd CdGdG^M C^MG^MC^M C^MC^M [Oligonucleotide 3980]
inhibition of ras-luciferase activity [2]: next greatest inhibition
inhibition of ras expression / decrease of ras mRNA (ras mRNA): 61%

AsAoAoAoCoGsTsCsAsGsCsCsAsTsGoGoToCoCsC (AAAACGTCAGCCATGGTCCC; linkages s1 o4 s9 o4 s1 (s phosphorothioate, o phosphodiester), sugars by position and methylation of C not given here; further chemistry not fully specified) [Oligonucleotide 7008]
effect on PKC-α mRNA levels (PKC-α mRNA; listed as 7008): reduction of PKC-α mRNA

CsCsAsCoAoCoCoGoAoCoGoGoCoGsCsCsC [ISIS 4241]
effect on ras expression [2]: completely inactive

C^MC^MA^M C^MA^MC^M C^MG^MAd C^MG^MG^M C^MG^MC^M C^MC^M [Oligonucleotide 3975]
inhibition of ras-luciferase activity [2]: neither of the oligonucleotides having either the one or the three 2′-deoxy-erythro-pentofuranosyl nucleotide subsequences showed significant activity

ps(CGA CTA TGC AAG TAC)
Tm ([3]; change in Tm relative to the unmodified oligonucleotide): −11.2 °C
Tm [3, 4]: 33.9 °C

CTC GTA CCT TCC GGT CC: unmodified phosphodiester, SEQ ID NO: 22 (CTCGTACCTTCCGGTCC; unmodified DNA)
Tm [3, 4]: 61.6 °C

CTTATATTCCGTCATCGCTC (chemistry not given here) [Compound 2502, phosphorothioate oligonucleotide complementary to the ras AUG region, 20 deoxy, reference compound]
inhibition of ras expression / decrease of ras mRNA (ras mRNA): 26%

O-Pentyl: 17-mer CCACACCGACGGCGCCC (SEQ ID NO: 1), 2′-O-pentyl nucleotides flanking a 7-base deoxy gap (sugars from the 5' end [OPent]5 d7 [OPent]5, backbone and methylation of C not given here)
Tm [1]: 68.5 °C

CUC GUA CCU UCC GGU CC: SEQ ID NO: 28; adenosine, thymidine and cytidine nucleotides modified to contain 2′-deoxy-2′-fluoro substituents (CUCGUACCUUCCGGUCC; 2'-fluoro on A, U/T, C, G sugar and linkages not given here, further chemistry not given here)
Tm [3, 4]: 81.6 °C

ps(CGA CUA UGC AAG UAC)
Tm [3, 4]: 60.9 °C

AoAoAoAoCoGsTsCsAsGsCsCsAsTsGoGoToCoCoC (AAAACGTCAGCCATGGTCCC; linkages o5 s9 o5 (s phosphorothioate, o phosphodiester), sugars by position and methylation of C not given here; further chemistry not fully specified) [Oligonucleotide 7273]
effect on PKC-α mRNA levels (PKC-α mRNA): more active than their 2′-β-methyl counterparts

C^MC^MA^M C^MA^MC^M C^MGdAd CdG^MG^M C^MG^MC^M C^MC^M [Oligonucleotide 3979]
inhibition of ras-luciferase activity [2]: measurable activity for the three nucleotide subsequence oligonucleotide 3979 at the highest concentration dose

C^MC^MA^M C^MAdCd CdGdAd CdGdGd CdG^MC^M C^MC^M [Oligonucleotide 3984]
inhibition of ras-luciferase activity [2]: greater inhibition of ras-luciferase activity than did oligonucleotide 2570
inhibition of ras expression / decrease of ras mRNA (ras mRNA): 81%

TsCsTs CsGsCs TsGsGs TsGsAs GsTsTs TsC (TCTCGCTGGTGAGTTTC; all phosphorothioate, sugars by position and methylation of C not given here; further chemistry not fully specified) [Oligonucleotide 7082]
effect on PKC-α mRNA levels (PKC-α mRNA): most active

CTTATATTCCGTCATCGCTC (chemistry not given here) [Oligonucleotide 4998, chimeric phosphorothioate, 7-base deoxy gap flanked by 2′-O-methyl regions, AUG target]
inhibition of ras expression / decrease of ras mRNA (ras mRNA; listed as 4998): 84%

AsAsAsAsCsGsTsCsAsGsCsCsAsTsGsGsTsCsCsC (AAAACGTCAGCCATGGTCCC; all phosphorothioate, sugars by position and methylation of C not given here; further chemistry not fully specified) [Oligonucleotide 5352]
effect on PKC-α mRNA levels (PKC-α mRNA): most active

AsAsAsAsCsGsTsCsAsGsCsCsAsTsGsGsTsCsCsC (AAAACGTCAGCCATGGTCCC; listed as DNA, chemistry not fully specified) [Oligonucleotide 3522, reference compound]
effect on PKC-α mRNA levels (PKC-α mRNA): reduction of PKC-α mRNA

TsTsCs TsCsGs CsTsGs GsTsGs AsGsTs TsTsC (TTCTCGCTGGTGAGTTTC; all phosphorothioate, sugars by position and methylation of C not given here; further chemistry not fully specified) [Oligonucleotide 6632]
effect on PKC-α mRNA levels (PKC-α mRNA): most active

CsCsAsCsAsCsCsGsAoCsGsGsCsGsCsCsC [ISIS 4248]
effect on ras expression [2]: just as active as a full P═S molecule

oligonucleotide with the 2′-O-propyl diester flanking regions: SEQ ID NO:1, phosphorothioate backbone in the 7-base deoxy gap only, phosphodiester 2′-O-propyl flanking regions (CCACACCGACGGCGCCC; 2'-O-propyl phosphodiester flanks, 7-deoxy phosphorothioate gap, exact positions not given here)
effect on ras expression [2]: able to inhibit ras expression

TCCGTCATCGCTCCTCAGGG [Oligonucleotide 5122]
inhibition of ras expression / decrease of ras mRNA (ras mRNA; listed as 5122): 15%

Source: patent US20080032945A1, “2'-MODIFIED OLIGONUCLEOTIDES” (Isis Pharmaceuticals, Inc., priority 1992, published 2008)
